According to paper PMC9694488, “Amyloid beta and its naturally occurring N-terminal variants are potent activators of human and mouse formyl peptide receptor 1” (The Journal of Biological Chemistry, 2022):

Tests used:
[1] = test system: FPR1; details: cited from earlier work
Text: In summary, our study provides a systematic overview over the capability of different mouse and human FPRs to interact with Aβ in different buffer systems. To our knowledge, we are the first to report an activation of hFPR3 by Aβ and the first to identify N-abridged Aβ fragments as activators of FPRs.

[2] = test system: hFPR2; assay: Ca2+ imaging, HEK293T transiently transfected with hFPR2; format: cell-based, human
Method: (§2) All peptides were thawed at room temperature approximately 1 h before each functional experiment, as this time was needed to prepare the compound plates for each measurement.
(§3) HEK293T cells (ATCC) were cultured in Dulbecco’s Modified Eagle’s medium (DMEM, Biowest) supplemented with 10% (v/v) heat-inactivated fetal calf serum (FCS, Pan Biotech), 1 unit/ml penicillin-streptomycin (Biowest), and 2 mM L-glutamine (Biowest) until 80% confluence. For transfection, approximately 2000 cells were seeded in each well of poly-D-lysine–coated (PDL) (10 μg/ml in PBS, Sigma) black optical 96-well μCLEAR-plates (Greiner Bio-One). Cells were transfected after 24 h using jetPEI (Polyplus-transfection SA) with 0.125 μg of DNA plasmids encoding the respective receptors and equal amounts of a plasmid encoding the G protein subunit Gα16 since this subunit is needed to trigger FPR-dependent calcium signals in HEK293 cells ([50], [70]). The medium of transfected cells was changed 24 h after transfection. For mock transfections, the proportion of the FPR-containing plasmids were substituted by an empty pcDNA3.1 vector.
(§4) Cell population responses of transfected HEK293T cells and U87 cells were recorded using a Flexstation III microplate reader (Molecular Devices). Briefly, cells were incubated with 2 μM Calbryte 520 AM (AAC Bioquest) for 2 h at room temperature in C1 assay buffer with 5 mM glucose (Carl Roth). Before each experiment, cells were rinsed three times with C1. Experiments with HEK293T cells were conducted 48 h after transfection, while experiments with U87 cells were performed 24 h after seeding. Acquisition of baseline fluorescence was performed for 25 s before ligand application, and cell population response was measured for 125 s after application.

[3] = test system: hFPR3; assay: Ca2+ imaging, HEK293T transiently transfected with hFPR3
Method: as §2, §3, §4

[4] = test system: U87 cells; assay: Ca2+ imaging, U87 cells; details: 10 μM tBoc2 vs 5 μM Aβ11-40 or Aβ17-40; n = 3, N = 1
Method: Peptides in HBSS or Tris–NaCl were dissolved in an ultrasonic bath as described above. […] The Aβ17-40 peptide used throughout the main text was purchased from Anaspec/MoBiTec and validated with Aβ17-40 peptides from Sigma-Aldrich and Synpeptide. Aβ11-40 was obtained from Peptides&Elephants. […] Tert-Boc-FLFL (tBoc2) was purchased from Bachem and dissolved in DMSO at 30 mM. f-MLFYFS (Psy-SP6) and f-MAMKKL (Sal-SP4) were obtained from VCPBIO and dissolved at 10 mM in DMSO (Psy-SP6) or at 1 mM in C1 (SP4), respectively. WKWMVm-NH2 and WKWMVm-CHO were purchased from Proteogenix and VCPBIO, respectively, and dissolved as 1 mM stock solutions in C1. fMLF was purchased from Sigma-Aldrich and also dissolved at 1 mM in C1. All peptides were thawed at room temperature approximately 1 h before each functional experiment, as this time was needed to prepare the compound plates for each measurement.
U87 MG cells (CLS) were cultured in Minimum Essential medium (Biowest) supplemented with 10% (v/v) heat-inactivated FCS (Pan Biotech), 1 unit/ml penicillin-streptomycin (Biowest), 2 mM L-glutamine (Biowest), and 1 unit/ml non-essential amino acids (Biowest) until 50 to 60% confluence. For calcium imaging and immunostaining, on average 2500 cells were seeded in each well of PDL-coated (10 μg/ml in PBS, Sigma) black optical 96-well μCLEAR-plates (Greiner Bio-One).
as §4

[5] = test system: hFPR1; assay: Ca2+ imaging, HEK293T transiently transfected with hFPR1; format: cell-based, human
[6] = test system: APP/PS1 mice; details: cited from earlier work
Text: (§1) The activation of PRRs by Aβ has become a recent focus in AD research because they have a special ability to potently trigger the reactive state ([14], [25]). Among these PRRs, FPRs are one of the promising targets for AD research ([12]). They belong to a small gene family of G protein–coupled receptors with three members in humans and seven in mice ([26]). FPRs are primarily expressed in the innate and adaptive immune system, where they contribute to the detection and elimination of bacterial pathogens ([27], [28], [29], [30]). However, they are also expressed in a number of cell types in the ... || In summary, our study provides a systematic overview over the capability of different mouse and human FPRs to interact with Aβ in different buffer systems. To our knowledge, we are the first to report an activation of hFPR3 by Aβ and the first to identify N-abridged Aβ fragments as activators of FPRs.

[7] = test system: rat microglia and astrocytes; details: cited from earlier work
Text: as §1, with “...” for “... || In summary, our study provides a systematic overview over the capability of different mouse and human FPRs to interact with Aβ in different buffer systems. To our knowledge, we are the first to report an activation of hFPR3 by Aβ and the first to identify N-abridged Aβ fragments as activators of FPRs.”

[8] = test system: human and murine FPR2; details: cell lines transfected with human and murine FPR2; cited from earlier work
Text: as §1, with “...” for “... || In summary, our study provides a systematic overview over the capability of different mouse and human FPRs to interact with Aβ in different buffer systems. To our knowledge, we are the first to report an activation of hFPR3 by Aβ and the first to identify N-abridged Aβ fragments as activators of FPRs.”

[9] = test system: primary murine glia and in vitro FPR expression systems; details: cited from earlier work
Text: as §1, with “...” for “... || In summary, our study provides a systematic overview over the capability of different mouse and human FPRs to interact with Aβ in different buffer systems. To our knowledge, we are the first to report an activation of hFPR3 by Aβ and the first to identify N-abridged Aβ fragments as activators of FPRs.”

[10] = test system: neutrophils and murine glial cells; details: cited from earlier work
Text: as §1, with “...” for “... || In summary, our study provides a systematic overview over the capability of different mouse and human FPRs to interact with Aβ in different buffer systems. To our knowledge, we are the first to report an activation of hFPR3 by Aβ and the first to identify N-abridged Aβ fragments as activators of FPRs.”

[11] = test system: hFPR1, hFPR2, hFPR3; assay: Ca2+ imaging, human FPRs taken together; format: cell-based; details: transfected HEK293T
[12] = test system: mFpr2; assay: Ca2+ imaging, HEK293T transiently transfected with mFpr2; format: cell-based, mouse
Method: as §2, §3, §4

[13] = test system: mouse and human FPR1; design: method as in Tiffany et al.; details: ref Tiffany et al.; cited from earlier work
[14] = test system: mFpr3; assay: Ca2+ imaging, HEK293T transiently transfected with mFpr3; format: cell-based, mouse; details: Aβ1-42 from P&E in C1 buffer; n = 3, N = 2
[15] = test system: monocytes and microglia; details: cited from earlier work
Text: Factors such as the secondary structure, 3D conformation, and aggregation therefore seem to be of high importance for the precise activation pattern, and different receptor subtypes seem to prefer different peptide structures or exposed surfaces. Multiple previous studies have already shown that different buffer systems and solvents can critically influence properties of Aβ such as its aggregation kinetics and the structure ...

[16] = CD spectroscopy (secondary structure); format: physicochemical; details: 30 μM in C1, sonicated 10 min, n = 3, N = 1
Method: CD spectra were recorded (JASCO J-1500 spectrometer) in a 1 mm High Precision Cell (Hellma Analytics). Data were processed in Spectra Analysis by JASCO and were plotted by Origin.

[17] = test system: human and mouse FPRs; assay: Ca2+ imaging, FPR-transfected HEK293T (several human and mouse FPRs taken together); format: cell-based
Method: as §2, §3, §4

[18] = test system: mFpr1; assay: Ca2+ imaging, HEK293T transiently transfected with mFpr1; format: cell-based, mouse; details: for Ca2+ response, mFpr1: n = 3, N = 2
[19] = Transmission electron microscopy of aggregates; format: physicochemical; details: 30 μM, 24 h incubation
Text: Samples were then stained with 4% uranyl acetate. Subsequently, TEM images were acquired (JEOL 1400 Transmission Electron Microscope) and then processed in ImageJ.

[20] = ThT aggregation assay; format: physicochemical
Method: DMSO. ThT (Sigma-Aldrich) stock solutions were dissolved at 1 mM in the respective buffer, sterile filtered with […] pore membranes, and stored at −20 °C. […] Fluorescence measurements were carried out as 100 μl triplicates in black optical 384-well μCLEAR-plates (Greiner Bio-One) at 37 °C with excitation at 440 nm and emission at 484 nm in a FlexStation III microplate reader within 15 min after thawing of the peptides. Signals were measured in intervals of 60 s for 120 min and were shaken for 3 s before each read.

[21] = test system: hFPR1; details: compared with this study; ref Le et al. and Slowik et al. (35, 42); cited from earlier work
[22] = 10 μM tBoc2 co-applied with 5 μM Aβ17-40 (Fig. S6B)
[23] = Ca2+ imaging, transfected HEK293T + Gα16, Calbryte 520, C1 buffer pH 7.2, n = 3, N = 1
[24] = HFIP-treated Aβ1-42 from Anaspec, 10 μM, n = 3, N = 2
[25] = 5 μM Aβ1-42 from P&E, n = 3, N = 1
[26] = Aβ1-42 from Sigma-Aldrich, 10 μM, n = 3, N = 2
[27] = Aβ1-42 from Synpeptide, 10 μM, n = 3, N = 2
[28] = different suppliers, buffers, storage, solvents
[29] = 5 μM Aβ1-42 from P&E dissolved in DMSO vs C1, n = 3, N = 2

Tert-Boc-FLFL [tBoc2, reference compound]
binding preference [1]: preferentially binds to FPR1
antagonism at FPR2 [2, 22]: competitive antagonist of FPR1 and FPR2
antagonism at FPR3 ([3]; 10 μM tBoc2 co-applied with 5 μM Aβ17-40, n = 1, N = 2): does not inhibit FPR3
inhibition of U87 Ca2+ response to Aβ11-40 / Aβ17-40 [4]: completely abolished the responses
antagonism at FPR1 [5, 22]: competitive antagonist of FPR1 and FPR2
effect on microglia reactivity, neuronal pathology and cognition [6]: reduced microglia reactivity, decreased neuronal pathology, and improved cognitive performance

Aβ1-42: Amyloid beta peptide, human WT sequence; from Peptides&Elephants, Anaspec (untreated or HFIP-treated), Sigma-Aldrich, Synpeptide
cAMP and ERK phosphorylation in rat microglia and astrocytes [7]: induced a decrease of cAMP and an induction of ERK phosphorylation
calcium mobilization and ERK signaling [8]: can induce calcium mobilization and ERK signaling
intracellular uptake via FPRs [9]: FPRs mediate the intracellular uptake of Aβ1-42
FPR2-dependent pro-inflammatory effects [10]: led to the induction of oxidative stress, the release of pro-inflammatory cytokines, and chemotaxis
response of hFPRs (in addition to hFPR2) [11]: all other hFPRs also responded
threshold for minimal detectable activation, mFpr2 [12, 23]: 3 µM
Ca2+ response, mFpr2 [12, 24]: weakly activated hFPR3, mFpr1, and mFpr2
activation of mouse and human FPR1 in an earlier study [13]: failed to detect any activation of mouse and human FPR1
Ca2+ response, mFpr3 [14]: did not respond
FPR-dependent signaling with progressing aggregation [15]: lost FPR-dependent signaling with progressing aggregation
β-turn proportion in comparison with the Anaspec peptides ([16]; Aβ1-42 from P&E): significantly elevated β-turn proportions
β-turn proportion in comparison with the Anaspec peptides ([16]; Aβ1-42 from Synpeptide): significantly elevated β-turn proportions
FPR responses in HBSS ([17]; 5 μM Aβ1-42 from P&E dissolved in HBSS, n = 3, N = 1): complete loss of nearly all FPR responses
FPR responses in C1 compared with HBSS and Tris–NaCl [17, 25]: most robust activation of human and mouse FPRs in C1
FPR response pattern after extended storage ([17]; 10 μM Aβ1-42 (Synpeptide), stored in C1 at -20 °C for 6 months vs freshly dissolved, n = 1, N = 2): Alterations of FPR responses
Ca2+ response pattern of mouse and human FPRs [17, 26]: elicited a similar response pattern as that of P&E
Ca2+ response, mouse and human FPRs other than mFpr1 ([17]; non-HFIP–treated Aβ1-42 from Anaspec, 10 μM, n = 3, N = 2): failed to activate any other mouse or human FPR
Ca2+ response, hFPR2 [2, 27]: the responses of hFPR1 and hFPR2 were lost
threshold for minimal detectable activation, hFPR2 [2, 23]: 3 µM
Ca2+ response, mFpr1 ([18]; Aβ1-42 from P&E in C1 buffer, compared with the other FPRs): even more sensitive and had a higher signal amplitude than any other receptor
threshold for minimal detectable activation, mFpr1 [18, 23]: 500 nM
Ca2+ response, mFpr1 ([18]; HFIP-treated Aβ1-42 from Anaspec, 10 μM): weakly activated hFPR3, mFpr1, and mFpr2
mFpr1 activation over all suppliers, buffers and solvents [18, 28]: activated under almost all conditions
Ca2+ response, mFpr1 ([18]; non-HFIP–treated Aβ1-42 from Anaspec, 10 μM): potently activated mFpr1
TEM aggregate morphology ([19]; Aβ1-42 from P&E): somewhat similar amorphous morphology
TEM aggregate morphology ([19]; Aβ1-42 from Synpeptide): somewhat similar amorphous morphology
TEM aggregate morphology ([19]; HFIP-treated Aβ1-42 from Anaspec): somewhat similar amorphous morphology
TEM aggregate morphology ([19]; non-HFIP–treated Aβ1-42 from Anaspec): seemed to directly form long fibers
increase of hFPR3 response by DMSO [3, 29]: 32%
hFPR3 response in Tris–NaCl versus C1 [3, 25]: did not significantly alter the responses of hFPR3
threshold for minimal detectable activation, hFPR3 [3, 23]: 3 µM
Ca2+ response, hFPR3 [3, 24]: weakly activated hFPR3, mFpr1, and mFpr2
hFPR3 activation over all suppliers, buffers and solvents [3, 28]: activated under almost all conditions
capability to form aggregates in HBSS ([20]; Aβ1-42 from P&E, 22.5 μM, in HBSS, 37 °C): strong reduction in the capability to form aggregates
ThT fluorescence kinetics in the first 2 h ([20]; Aβ1-42 from Sigma-Aldrich, 22.5 μM in C1, 37 °C): did not drastically change
ThT fluorescence kinetics in the first 2 h ([20]; Aβ1-42 from Synpeptide, 22.5 μM in C1, 37 °C): did not drastically change
ThT fluorescence kinetics in the first 2 h ([20]; HFIP-treated Aβ1-42 from Anaspec (aggregation control), 22.5 μM, C1 with 0.2% DMSO, 37 °C): showed the expected increase
ThT fluorescence kinetics in the first 2 h ([20]; non-HFIP–treated Aβ1-42 from Anaspec, 22.5 μM in C1, 37 °C): showed a reduction of fluorescence
decrease of hFPR1 response by DMSO [5, 29]: 40%
reduction of signal amplitude, hFPR1, in Tris–NaCl versus C1 [5, 25]: approximately 50%
Ca2+ response, hFPR1 ([5]; Aβ1-42 from P&E in C1 buffer, n = 3, N = 2, compared with the other FPRs): even more sensitive and had a higher signal amplitude than any other receptor
Ca2+ response, hFPR1 [5, 26]: failed to activate hFPR1
Ca2+ response, hFPR1 [5, 27]: the responses of hFPR1 and hFPR2 were lost
threshold for minimal detectable activation, hFPR1 ([5]; Ca2+ imaging, transfected HEK293T + Gα16, Calbryte 520, assay buffer C1 pH 7.2, peptide stock 30 μM in C1, n = 3, N = 1): 3 µM
hFPR1 response to Aβ1-42 in earlier studies [21]: far less pronounced
